test: gradient 5% acetonitrile 3 min, to 50% in 2 min, to 85% in 15 min, held 3 min, 100 µL/min; details: column: Zorbax Extend-C18 2.1 x 50 mm; eluents: water / acetonitrile, 0.1% formic acid
Summary of the method: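 Using water and acetonitrile that each contained 0.1% formic acid, mixtures of ~100 pure standards were separated at 100 μL/min on a Zorbax Extend-C18 column (2.1 × 50 mm, 1.8 μm). The HPLC fed a quadrupole time-of-flight mass spectrometer working in positive and negative ionization mode, with dead and dwell volumes of 40 μL and 900 μL. Data were acquired over 3 months. Retention time was read from computationally picked adduct peaks after manual inspection of each.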

| RP-LC retention time [s] | Compound |
| --- | --- |
| 691 | CCN(CC)C(=O)c1ccc2c(c1)N(CC(=O)N1CCCCC1)C(=O)CO2 |
| 660 | COc1ccc(NC(=O)N2C[C@@H](F)C[C@H]2C(=O)N2CCCCC2)cc1F |
| 908 | CCC(C)NC(=O)C1CCCN(c2nccn3nc(-c4ccc(C)cc4C)cc23)C1 (configuration not stated) |
| 566 | CCCN1CCN(C(=O)c2nc(N3CCCCC3)c3c(C)cc(C)nc3n2)CC1 |
| 618 | Cc1ccc2cc(CCC(=O)NC(C)c3cn(C)nc3C)c(=O)[nH]c2c1 (configuration not stated) |
| 761 | Cc1cccc(NC(=O)Nc2cnn(-c3ncncc3N3CCC(C)CC3)c2)c1 |
| 1340 | CCOC(=O)c1c(NC(=O)C2CCN(S(=O)(=O)Cc3ccccc3)CC2)sc2c1CCCC2 |
| 739 | O=C(c1cn(-c2cc(N3CCSCC3)ncn2)cn1)N1CCN(c2ncccn2)CC1 |
| 1250 | Cc1cc(OCC(=O)Nc2nc(-c3ccccc3)cs2)cc(C)c1Cl |
| 941 | COC(=O)c1nc(NC(=O)Cn2nc3c(cc2=O)CCCCC3)sc1CC(C)C |
| 842 | Cc1cc(C)c(S(=O)(=O)N2CCCC(C(=O)NC3CC3)C2)c(C)c1 (configuration not stated) |
| 780 | O=C([C@@H]1C[C@H](F)CN1S(=O)(=O)c1ccc(F)c(F)c1)N1CCCCC1 |
| 1110 | O=C(Cn1nc2c3cc(-c4ccc(Cl)cc4)nn3ccn2c1=O)NC1CCCC1 |
| 902 | Cc1cc(-c2nnc(-c3ccccc3)o2)c(C)n1CC(=O)Nc1ccc2c(c1)OCCO2 |
| 1200 | Cc1ccc(C2c3[nH]c4ccccc4c3CCN2C(=O)C2CCC2)cc1 (configuration not stated) |
| 861 | CCOCCCNC(=O)C1CCN(c2nccnc2Oc2cccc(C)c2)CC1 |
| 990 | Cc1cc(C)cc(NC(=O)CSc2cc(N3CCCCC3)ncn2)c1 |
| 916 | Cc1ccc2[nH]cc(CCN3CC(C(=O)Nc4ccc(Br)cc4)CC3=O)c2c1 (configuration not stated) |
| 572 | Cc1ccn2cc(C(=O)NCCN(C)C3CCCCC3)nc2c1 |
| 1070 | Cc1ccc(Cn2nc3ccc(S(=O)(=O)N4CCCCCC4)cn3c2=O)cc1C |
| 646 | Cc1ccsc1CN1CCn2nnc(CCC(=O)N3CCCC3)c2C1 |
| 666 | Nc1cc(C2CCN(C(=O)Nc3ccc(F)cc3F)CC2)no1 |

| RP-LC retention time [s] | Compound |
| --- | --- |
| 878 | O=C(c1ccc(-c2cccs2)nc1)N1CCCCCC1 |
| 945 | Cc1cc(OCC(=O)Nc2ccc(Cl)cc2F)nc(N2CCN(c3ccccc3)CC2)n1 |
| 908 | CN(C(=O)c1cc2c(=O)oc3ccccc3c2n1C)C1CCCCC1 |
| 721 | Cc1cccc(NC(=O)Nc2ccc(C)n(CC(=O)O)c2=O)c1 |
| 871 | CC(=O)c1ccc(NC(=O)c2noc3c2CCCC3)cc1 |
| 1030 | CCn1c(=O)c(N2CCCC(C(=O)NCCc3c[nH]c4ccc(C)cc34)C2)nc2ccccc21 (configuration not stated) |
| 919 | Cc1ccc(C(C)NC(=O)c2ccc3[nH]cc(C(=O)C(=O)N4CCCCCC4)c3c2)c(C)c1 (configuration not stated) |
| 1140 | Cc1cccc(S(=O)(=O)N2CCc3nc(-c4ccc(F)cc4)ncc3C2)c1 |
| 940 | CCN(CC)C(=O)c1cnc2snc(C)c2c1N1CCC(C(=O)Nc2cc(F)ccc2F)CC1 |
| 910 | Cc1ccc(-c2c(C(F)(F)F)nn3c(N4CCN(c5ccccn5)CC4)cc(C)nc23)cc1 |
| 817 | CC1=C(c2ccccc2)S(=O)(=O)N=C1N1CCCN(C(=O)NC2CCCCC2)CC1 |
| 578 | CCCn1cnc2cc(CNC(=O)c3cnccn3)ccc21 |
| 965 | CC(NC(=O)c1ccc(Oc2nccnc2N2CCSCC2)cc1)c1ccc(F)cc1 (configuration not stated) |
| 627 | CC(C(=O)N1CCN(c2ccccn2)CC1)n1c2ccccc2c2cnn(C)c(=O)c21 (configuration not stated) |
| 596 | O=C(c1cc2ccc3cccnc3c2[nH]1)N1CCN(c2ccccn2)CC1 |
| 672 | Cn1c(CCc2cccc(NC(=O)C3CCN(S(=O)(=O)N4CCCC4)CC3)c2)nc2ccccc21 |
| 792 | CN(C)C(=O)c1csc(S(=O)(=O)N2CCC(C(=O)Nc3ccc(F)cc3Cl)CC2)c1 |
| 650 | CCC(C)NC(=O)CSc1nc2nc(C)cc(C)n2n1 (configuration not stated) |
| 669 | CCOC(=O)c1ccc(Nc2c(C(=O)N3CCCC(C)C3)cnc3nc(C)ccc23)cc1 (configuration not stated) |
| 724 | Cc1cc(C)cc(-n2ncc3c(N4CCC(C(N)=O)CC4)ncnc32)c1 |
| 798 | Cc1nnc(-c2ccc3ccn(CC(=O)Nc4cccc(C#N)c4)c3c2)o1 |
| 612 | CCC1CN2C=NC(N3CCN(C(=O)Nc4ccc(OC)cc4C)CC3)=CC2=N1 (configuration not stated) |

The next lines start with the compound.

| Compound | RP-LC retention time [s] |
| --- | --- |
| CCOC(=O)c1[nH]c(C)c(CCC(=O)N2CCCC(C(=O)NC3CCCCCC3)C2)c1C (configuration not stated) | 868 |
| CCOc1ccc(-c2cn3ccn(-c4ccc(OC)c(OC)c4)c(=O)c3n2)cc1 | 781 |
| O=C1CC(c2noc(-c3ccccc3)n2)CN1c1ccccc1 (configuration not stated) | 921 |
| CCOC(=O)c1ccccc1NC(=O)N1CCC2(CC1)NC(=O)c1ccccc1O2 | 922 |
| Cc1sc(C)c(S(=O)(=O)N2CCN(c3ccc(F)cc3)CC2)c1-c1cc(C(F)(F)F)on1 | 1270 |
| CCc1ccccc1NC(=O)N1C[C@H](c2nc(-c3ccccc3)no2)[C@@H](C)C1 | 1040 |
| O=C(c1cc(F)cc(F)c1)N1CCC(n2c(-c3ccco3)nc3cccnc32)C1 (configuration not stated) | 766 |
| Cc1cccn2c(Nc3ccc4c(c3)OCCO4)c(-c3ccc(O)cc3)nc12 | 642 |
| CC(C)n1nc(CO)c2c1CCN(C(=O)C1COc3ccccc3O1)C2 (configuration not stated) | 667 |
| O=C(NC1CCCCC1)N1CCC(N2C(=O)C3(CCCCC3)C2c2ccncc2)CC1 (configuration not stated) | 659 |
| COC(=O)c1ccc(Cl)cc1NC(=O)NCCCn1c(C(F)(F)F)nc2cccnc21 | 1020 |
| COc1cccc(CNC(=O)c2nnc(-c3ccc(S(=O)(=O)N(C)C)cc3)o2)c1OC | 829 |
| COc1ccc(OC)c(NC(=O)Cn2c(=O)n(-c3ccccc3)c3ncccc32)c1 | 841 |
| O=C(Nc1ccc2c(c1)OCO2)c1cn(-c2ccc(F)cc2)nn1 | 885 |
| COc1ccc(CNC(=O)CN2CCN(Cc3ccccc3)C(=O)C2=O)cc1 | 684 |
| CCOc1ccc(NC(=O)C2CCN(C(=O)C3Sc4ccccc4NC3=O)CC2)cc1 (configuration not stated) | 725 |
| Cc1c(CC(=O)NCc2cccnc2)c(=O)n2nc(-c3ccccc3)nc2n1C | 575 |
| O=S(=O)(c1cc(-c2nnc(C3CCC3)o2)co1)N1CCN(c2ccccc2F)CC1 | 1070 |
| COc1ccc(-c2ccnc3nc(CCc4ccc(OC)c(OC)c4)nn23)c(F)c1 | 867 |
| COCCn1cc(CCNC(=O)Nc2ccccc2C)c2cccnc21 | 694 |
| CS(=O)(=O)N1CCC(OC2CCN(C(=O)Nc3c(F)cccc3F)CC2)CC1 | 688 |
| COc1cc([C@@H]2c3cc4c(cc3[C@H](O)[C@@H](CO)[C@@H]2C(=O)NCc2ccc3c(c2)OCO3)OCO4)cc(OC)c1OC | 709 |

| Compound | RP-LC retention time [s] |
| --- | --- |
| O=S(=O)(NCC1CCN(Cc2ccco2)CC1)c1ccc(F)c(Cl)c1 | 575 |
| COC1CCOC2(CCN(C(=O)Nc3ccc4c(c3)OCCO4)CC2)C1 (configuration not stated) | 690 |
| CCCNC(=O)c1ccc2nc(CCc3ccc(NC(=O)C(C)C)cc3)[nH]c2c1 | 617 |
| COc1cccc(C2NC(=O)NC(C)=C2C(=O)OC2CCCCCC2)c1OC (configuration not stated) | 971 |
| Cc1cc2n(n1)CCC(=O)N2CCCC(=O)NCCCOC(C)C | 618 |
| CCN(CC)CCNC(=O)c1c(-c2ccccc2)c(-c2ccccc2)nn(CC)c1=O | 666 |
| O=C(Nc1ccccc1F)NC1CCN(C(=O)C2CC2)C1 (configuration not stated) | 673 |
| N#Cc1ccsc1NC(=O)NC(c1ccccc1)c1ccccc1 | 947 |
| O=C1CC(c2ccc3c(c2)OCO3)c2c(c(C(=O)O)cn2-c2cccc(F)c2)N1 (configuration not stated) | 777 |
| COc1ccc(-c2cc(C(=O)N3CCN(S(=O)(=O)c4ccc(C(C)(C)C)cc4)CC3)[nH]n2)cc1 | 1030 |
| Cc1ccc(-c2nc3cnccn3c2NCCC(=O)NCc2cccs2)cc1 | 700 |
| CN(CCc1noc(C2CN(Cc3cc(Cl)ccc3F)C2)n1)S(C)(=O)=O | 608 |
| O=C(NCc1ccccc1Cl)C(=O)NCC1CCN(C(=O)Oc2ccccc2)CC1 | 893 |
| Cc1ccccc1-c1nc(C2CCN(S(=O)(=O)c3cccc(F)c3)CC2)no1 | 1160 |
| CN(C)C[C@@H]1CN(C2CCOCC2)C[C@H]1NC(=O)C1(c2ccccc2)CC1 | 556 |
| CCOCC(=O)N1C[C@@H]2CCCN3CCC[C@@H]([C@H]23)[C@H]1CCCC(=O)NCC1CC1 | 574 |
| CCCCCn1c(=O)c2ccccc2n(Cc2nc(-c3ccccc3)no2)c1=O | 1240 |
| CCCN(CCC)C1COc2cccc(OC)c2C1 (configuration not stated) | 722 |
| CCc1nnc(-c2ccc(S(=O)(=O)NC3CCCC3)o2)o1 | 815 |
| Clc1ccc(-c2nnc(-c3nc(NCc4cccnc4)c4ccccc4n3)o2)cc1 | 680 |
| CCc1nnc(-c2ccc(=O)n(CC(=O)N3CCC4(CC3)OCCO4)c2)o1 | 594 |
